Values after ≈ are worked out from the molar mass of the structure shown. Where a SMILES comes first, the peptide text is derived from it. Bridges are numbered along the chain shown (N, C = ends). Roman numbers before positions name the chains, in order. [ ]: non-standard residue; d: D form. Tle = CC(C)(C)[C@H](N)C(=O)O; dDab = NCC[C@@H](N)C(=O)O; Orn = NCCC[C@H](N)C(=O)O; Dab = NCC[C@H](N)C(=O)O; Dap = NC[C@H](N)C(=O)O
Columns and labels:
Assay type in all cases: cell-based
[1] = system: human red blood cells (hRBC); experiment: Hemolysis; details: red cells of human, 1 h, 200
Summary of the method: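 First, fresh human erythrocytes are washed in PBS; next, they are incubated at 20% (v/v) with compound at 200 μg/mL for 1 h at 37° C. Finally, centrifuged supernatants are diluted and OD540 is taken relative to the Triton X-100 lysis control.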

[2] = system: Pseudomonas aeruginosa ATCC 27853; details: ATCC 27853
Summary of the method: (§1)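 Peptides are tested in serial two-fold dilutions against about 10^6 CFU/mL in MH-II broth containing 0.002% P-80 (v/v, final). Plates incubate 18-20 h at 35° C, and the MIC is the lowest peptide level (μg/mL) showing no visible growth.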

[3] = system: Klebsiella pneumoniae 968733; details: 968733
Summary of the method: as §1

[4] = system: Enterobacter cloacae 848840; details: 848840
Summary of the method: as §1

[5] = system: Escherichia coli ATCC 25922; details: ATCC 25922
Summary of the method: as §1

[6] = system: Klebsiella pneumoniae SSI #3010; details: SSI #3010
Summary of the method: as §1

[7] = system: Acinetobacter baumannii DSM 30008; details: DSM 30008
Summary of the method: as §1

[8] = system: Escherichia coli 926415; details: 926415
Summary of the method: as §1

[9] = system: Acinetobacter baumannii 872842; details: 872842
Summary of the method: as §1

SMILES | Hemolysis at 200 μg/mL [1] [%] | Pseudomonas aeruginosa ATCC 27853 MIC [2] [µg/mL] | MIC [3] [µg/mL] | MIC [4] [µg/mL] | Escherichia coli ATCC 25922 MIC [5] [µg/mL] | Klebsiella pneumoniae SSI #3010 MIC [6] [µg/mL] | Acinetobacter baumannii DSM 30008 MIC [7] [µg/mL] | MIC [8] [µg/mL] | MIC [9] [µg/mL]
CC(=O)N[C@H](C(=O)N[C@H]1CCN(C)C(=O)C[C@@H](C(=O)N[C@@H](CO)C(N)=O)NC(=O)[C@H](C(C)C)NC(=O)[C@H](CO)NC(=O)[C@H](Cc2c[nH]c3ccccc23)NC(=O)CNC(=O)[C@@H](CCN)NC(=O)[C@H](CCC(=O)N[C@@H](CCN)C(=O)N[C@H](C(=O)N[C@@H](CN)C(=O)N[C@H]2CCNC(=O)[C@H]([C@@H](C)O)NC(=O)[C@H](CCN)NC(=O)[C@H](CCN)NC(=O)[C@H](CC(C)C)NC(=O)[C@@H](CC(C)C)NC(=O)[C@H](CCN)NC2=O)[C@@H](C)O)NC(=O)[C@H](CCN)NC(=O)[C@H](Cc2ccc(O)cc2)NC1=O)C(C)C [Ex. 348] | <1 | 0.125 | 2 (≈ 0.842 µM) | 0.5 (≈ 0.21 µM) | 0.0625 | 0.0625 | 0.125 | 0.5 (≈ 0.21 µM) | 0.5 (≈ 0.21 µM)
CC(=O)N[C@H](C(=O)N[C@H]1CCNC(=O)CC[C@@H](C(=O)N[C@@H](CO)C(N)=O)NC(=O)[C@H](C(C)C)NC(=O)[C@H](CO)NC(=O)[C@H](Cc2c[nH]c3ccccc23)NC(=O)CNC(=O)[C@@H](CCN)NC(=O)[C@H](CCC(=O)N[C@@H](CCN)C(=O)N[C@H](C(=O)N[C@@H](CN)C(=O)N[C@H]2CCNC(=O)[C@H]([C@@H](C)O)NC(=O)[C@H](CCN)NC(=O)[C@H](CCN)NC(=O)[C@H](CC(C)C)NC(=O)[C@@H](CC(C)C)NC(=O)[C@H](CCN)NC2=O)[C@@H](C)O)NC(=O)[C@H](CCN)NC(=O)[C@H](Cc2ccc(O)cc2)NC1=O)C(C)C [Ex. 349] (I: Ac-V[Dab]Y[Dab]E[dDab]GWSVES-NH2 / II: [Dab]T[Dap][Dab][Dab][dL]L[Dab][Dab]T; lactam I:2-I:11, II:4-II:C; amide I:5-II:N) | <1 | 0.125 | 0.25 (≈ 0.105 µM) | 0.25 (≈ 0.105 µM) | 0.0625 | 0.125 | 0.0625 | 0.25 (≈ 0.105 µM) | 0.25 (≈ 0.105 µM)
CC(=O)N[C@@H](CC(C)C)C(=O)N[C@H]1CSSC[C@@H](C(=O)N[C@@H](CO)C(N)=O)NC(=O)[C@H](C(C)(C)C)NC(=O)[C@H](CCN)NC(=O)[C@H](Cc2c[nH]c3ccccc23)NC(=O)[C@H](CCN)NC(=O)[C@@H](CCN)NC(=O)[C@H](CCC(=O)N[C@@H](CCN)C(=O)N[C@H](C(=O)N[C@@H](CCN)C(=O)N[C@H]2CCNC(=O)[C@H]([C@@H](C)O)NC(=O)[C@H](CCN)NC(=O)[C@H](CCN)NC(=O)[C@H](CC(C)C)NC(=O)[C@@H](CC(C)C)NC(=O)[C@H](CCN)NC2=O)[C@@H](C)O)NC(=O)[C@H](CCN)NC(=O)[C@H](Cc2ccc(O)cc2)NC1=O [Ex. 352] (I: Ac-LCY[Dab]E[dDab][Dab]W[Dab][Tle]CS-NH2 / II: [Dab]T[Dab][Dab][Dab][dL]L[Dab][Dab]T; disulfide I:2-I:11; amide I:5-II:N; lactam II:4-II:C) | <1 | 0.25 | 0.5 (≈ 0.203 µM) | 8 (≈ 3.24 µM) | 0.125 | 0.125 | 1 | 0.25 (≈ 0.101 µM) | 4 (≈ 1.62 µM)
CC(=O)N[C@@H](CC(C)C)C(=O)N[C@H]1CSSC[C@@H](C(=O)N[C@@H](CO)C(N)=O)NC(=O)[C@H](C(C)C)NC(=O)[C@H](CCN)NC(=O)[C@H](Cc2c[nH]c3ccccc23)NC(=O)[C@H](CCN)NC(=O)[C@@H](CCN)NC(=O)[C@H](CCC(=O)N[C@@H](CCN)C(=O)N[C@H](C(=O)N[C@@H](CN)C(=O)N[C@H]2CCNC(=O)[C@H]([C@@H](C)O)NC(=O)[C@H](CCN)NC(=O)[C@H](CCN)NC(=O)[C@H](CC(C)C)NC(=O)[C@@H](CC(C)C)NC(=O)[C@H](CCN)NC2=O)[C@@H](C)O)NC(=O)[C@H](CCN)NC(=O)[C@H](Cc2ccc(O)cc2)NC1=O [Ex. 353] (I: Ac-LCY[Dab]E[dDab][Dab]W[Dab]VCS-NH2 / II: [Dab]T[Dap][Dab][Dab][dL]L[Dab][Dab]T; disulfide I:2-I:11; amide I:5-II:N; lactam II:4-II:C) | <1 | 0.25 | 4 (≈ 1.64 µM) | 8 (≈ 3.28 µM) | 0.125 | 0.125 | 1 | 0.25 (≈ 0.103 µM) | 4 (≈ 1.64 µM)
CC(=O)N[C@H](C(=O)N[C@H]1CSSC[C@@H](C(=O)N[C@@H](CO)C(N)=O)NC(=O)[C@H](C(C)C)NC(=O)[C@H](CO)NC(=O)[C@H](Cc2c[nH]c3ccccc23)NC(=O)[C@H](CCC(=O)N[C@@H](CCN)C(=O)N[C@H](C(=O)N[C@@H](CN)C(=O)N[C@H]2CCNC(=O)[C@H]([C@@H](C)O)NC(=O)[C@H](CCN)NC(=O)[C@H](CCN)NC(=O)[C@H](CC(C)C)NC(=O)[C@@H](CC(C)C)NC(=O)[C@H](CCN)NC2=O)[C@@H](C)O)NC(=O)[C@@H](CCN)NC(=O)[C@H](CCCN)NC(=O)[C@H](CO)NC(=O)[C@H](Cc2ccc(O)cc2)NC1=O)C(C)C [Ex. 354] (I: Ac-VCYS[Orn][dDab]EWSVCS-NH2 / II: [Dab]T[Dap][Dab][Dab][dL]L[Dab][Dab]T; disulfide I:2-I:11; amide I:7-II:N; lactam II:4-II:C) | 1 | 0.125 | 0.25 (≈ 0.104 µM) | 0.125 (≈ 0.0518 µM) | 0.0625 | 0.0625 | 0.03125 | 0.5 (≈ 0.207 µM) | 0.0625 (≈ 0.0259 µM)
CC(=O)N[C@H](C(=O)N[C@H]1CSSC[C@@H](C(=O)N[C@@H](CO)C(N)=O)NC(=O)[C@H](C(C)C)NC(=O)[C@H](CO)NC(=O)[C@H](Cc2c[nH]c3ccccc23)NC(=O)[C@H](CCC(=O)N[C@@H](CCN)C(=O)N[C@H](C(=O)N[C@@H](CN)C(=O)N[C@H]2CCNC(=O)[C@H]([C@@H](C)O)NC(=O)[C@H](CCN)NC(=O)[C@H](CCN)NC(=O)[C@H](CC(C)C)NC(=O)[C@@H](CC(C)C)NC(=O)[C@H](CCN)NC2=O)[C@@H](C)O)NC(=O)[C@@H](CCN)NC(=O)[C@H](CCCN)NC(=O)[C@H]([C@@H](C)O)NC(=O)[C@H](Cc2ccc(O)cc2)NC1=O)C(C)C [Ex. 355] (I: Ac-VCYT[Orn][dDab]EWSVCS-NH2 / II: [Dab]T[Dap][Dab][Dab][dL]L[Dab][Dab]T; disulfide I:2-I:11; amide I:7-II:N; lactam II:4-II:C) | 6 | 0.125 | 0.25 (≈ 0.103 µM) | 0.125 (≈ 0.0515 µM) | 0.03125 | 0.0625 | 0.03125 | 0.25 (≈ 0.103 µM) | 0.0625 (≈ 0.0258 µM)
